One series has as its system contact hypersensitivity. Briefly: Contact hypersensitivity model in mouse (atopic dermatitis model). The class given is in vivo. To be noted: po, 30 minutes before causal induction, 24 hours, read-out: Control % (intumescence of the pinna, untreated = 100); for response vs control in vivo at 20 mg/kg: 20 mg/Kg p.o.; for response vs control in vivo at 3 mg/kg: 3 mg/Kg p.o. The procedure: [Contact hypersensitivity model in mouse (Atopic dermatisis model)]
Test was conducted by referring to the method as described in "HIFU (a Japanese journal of dermatology)" Vol. 35, Supplemental Issue No. 15, pp. 96-106, published on March 1993.
CBA/J strain mice of 6-8 week age were used as the test animals (6-8 mice in one group). The mouse was sensitized by coating 150 μl of 5% of picryl chloride [dissolved in a mixture of acetone with olive oil (1:4)] on the shaved portion of skin in the back of mouse. […] 24 Hours after the causal induction, the effect for inhibiting contact hypersensitivity performed by the test compounds were evaluated by referring to the action for inhibiting intumescence of the pinna as an indication. The test compound was orally administered 30 minutes before the causal induction.
The following compounds were used for the test.
1) Compounds of the Present Invention:
(Dosage: 20 mg/Kg p.o., which is 7-10 times larger amount of dosages for compounds of the present invention)
The value obtained from the sensitization test without administration of the test compound was referred to as 100, and by comparing with the values obtained from the sensitization test with administration of the test compound was referred to "% control" values.

The test system of the next series is late asthmatic response. The series is described as follows: Model experiment of asthma in guinea pigs (inhibition of late asthmatic response). The class given is in vivo, guinea pig. Conditions: control 112 ± 17.8. The procedure: [Model experiment of asthma in guinea pigs. (Inhibition of late asthmatic response)]
Hartley strain female guinea pigs (SLC) having the body weight of about 350 g were used and 50 mg/Kg of cyclophosphamide (mfd. by Sigma Chemical Co.) was injected intraperitoneally. 2 Days after this pretreatment by injection, 1 mg of egg albumin (mfd. by Sigma Chemical Co.) and 100 mg of aluminum hydroxide (Wako Pure Chemical Industries Co., Ltd.) were injected intraperitoneally for sensitization. 3 Weeks after the sensitization, 10 μg of egg albumin and 100 mg of aluminum hydroxide were injected intraperitoneally for booster sensitization. 6 Weeks after the primary sensitization, asthma attach was induced by inhalation and exposure to egg albumin (4 mg/ml) by using a nebulizer (NE-U12: mfd. by Omron Corp.). The asthma reaction was determined by use of a body-plethysmography (using system developed by Uchida lecturer in internal department for respiratory organs at Tsukuba University; air-resist tube, respiratory amplifier and differential pressure transducer (mfd. by Nihon Koden); and osciloscope (mfd. by Iwasaki Tsushin)), so as to determine a […] of specific airway conductance (sGaw) under the condition without anesthesia. The sGaw value just before the administration of test comopound was measured and the value is referred to as 100. Test compound was suspended in 1% HPMC (hydroxymethylpropylcellulose mfd. by Shinetsu Chemical), and was administered orally 30 minutes before the exposure with the antigen. Then, sGaw value was measured in each points until 7 hours after the exposure with the antigen.

Series [1] is described as follows: Toxicity of compound against the cell strain RAW 264.7 (MTT). The class given is cell-based. Conditions: mouse, raw 264.7 cells, 1 × 10^-6 M, read-out: Ratio of optical absorbance. As for the experimental part: [Toxicity test (Toxicity of compound against the cell strain RAW 264.7)]
Test was conducted in accordance with the method as described in J. Immunol. Methods, Vol. 94, pp. 57-68, (1986). Cell strain RAW 264.7 derived from the macrophage of mouse was incubated similarly as in the method of Test Example 1(1). After that, MTT reagent (5 mg/ml) in 1/10 amount of the culture medium was added to the cells, and incubated for 4 hours. The supernatant of culture medium was taken off, then the cells were collected by using 1% SDS solution and the optical absorbance at 570-630 nm of the SDS solution was measured.

Series [2] has as its system formation of NO in cell strain RAW 264.7. Briefly: Activity for inhibiting the formation of NO (LPS-stimulated RAW 264.7 cells, Griess reagent). It is filed as cell-based. Conditions: Mus musculus, RAW264.7, 1 × 10^-6 M, LPS 100 ng/ml, 24 hours, read-out: Ratio of formed amount of NO (reference culture medium = 100). The procedure:
[Evaluation test of activity for inhibiting the formation of NO]
Pharmacological tests of pyrimidine derivatives obtained in Examples 1, 12, 14, 19, 22, 24, 29 and 42 used as test compounds were conducted as follows.
Preparation of culture media and method of cell culture were conducted in accordance with those described in J. Biol. Chem., Vol. 269, No. 1, pp. 711-715, (1994), and determination of formed amount of NO was conducted in accordance with the method described in Anal. Biochem., Vol. 126, pp. 131-138, (1982), respectively.
(1) Cell Culture and Inducible Synthesis of NO in the Cells by Stimulation with Lipopolysaccharide (LPS)
Cell strain RAW 264.7 (ATCC) derived from the macrophage of mouse was placed on each one of the wells on a microplate having 24-wells so as to put the cells in an amount of 1×10^5 cells/U (well). The cells were incubated for 24 hours in a phenol red free-RPMI-1640 culture medium (mfd. by GIBCO) to which 10% of fetal bovine serum, 100 U/ml of penicillin (mfd. by Dainippon Pharmaceutical Co., Ltd.) and 100 μg/ml of streptomycin (mfd. by Dainippon Pharmaceutical Co., Ltd.) were added.
Next, the reference culture medium was prepared by adding 2 mM of L-arginine (mfd. by Wako Pure Chemical Industries, Ltd.), 10 μM/ml of tetrahydrobiopterin (mfd. by ALEXIS) and 100 ng/ml of lipopolysaccharide (LPS)(mfd. by Sigma Chemical Co.) to a phenol red free-RPMI-1640 culture medium. While, the reference culture medium without containing LPS was used as the blanc culture medium.
On the other hand, the test culture medium, containing the test compound was prepared by adding 0.2% of the test compounds dissolved in dimethyl sulfoxide (DMSO) to the reference culture medium to adjust the final concentration of the test compound to 1×10^-6 M.
Each one of the blank culture medium, reference culture medium and test culture medium containing the test compound was added, respectively to the well on the micro-plate where the above-mentioned cell strain RAW 264.7 was placed, and was incubated for 24 hours.
(2) Measurement of the Amount of Formed NO
Quantitative measurement of NO cannot be made directly, due to its unstability. Therefore, the amount of NO is measured indirectly, thus by forming nitrous acid ion (hereunder referred to as NO2^-) which is stable product derived from NO by use of Griess reagent [consisting of 1% of sulfanylamide and 0.1% of sulfuric acid solution containing 0.1% N-(1-naphthyl)ethylenediamine dihydrochloride], and measure the amount of NO2^-.
Into the supernatant of each one of the culture media was admixed with the same amount of Griess reagent respectively, and subjected to reaction at room temperature for 10 minutes, then the optical absorbance at 540 nm of the thus reacted culture medium was measured. While, the optical absorbance of sodium nitrite solution diluted with the culture medium was referred to as the standard value, and the amount of NO2^- formed in each one of these incubated culture media was measured. The amounts of NO2^- formed in the reference culture medium and the test culture medium were corrected by using the value of formed amount of NO2^- in the blanc culture medium.
On the basis of that the ratio of amounts of NO2^- formed in the reference culture medium and that of formed in the test culture medium is corresponding to the ratio of amount of NO formed in the reference culture medium and that of formed in the test culture medium. Thus the amount of NO2^- formed in the reference culture medium is referred to as the value of 100, and the value of amount of NO2^- formed in the test culture medium is referred to as amount of NO formed in the test culture medium.
On the technique in general: The Griess reaction detects nitrite, a stable product of nitric oxide.

For `Oc1cc(C2CC2)nc2c(-c3ccc(Sc4ccccc4)cc3)cnn12` [(1), 7-Hydroxy-5-cyclopropyl-3-(4-phenylthiophenyl)pyrazolo[1,5-a]pyrimidine], the response vs control in vivo at 20 mg/kg in the series on contact hypersensitivity came to 99%.
Still for that read-out and setting: in the case of `Cc1cc(O)n2ncc(-c3ccc(Sc4ccccc4)cc3)c2n1` [(2), 7-Hydroxy-5-methyl-3-(4-phenylthiophenyl)pyrazolo[1,5-a]pyrimidine] it was 90%; in that of `COCc1nn2c(O)ccnc2c1-c1ccc(Sc2ccccc2)cc1` [(3), 7-Hydroxy-2-methoxymethyl-3-(4-phenylthiophenyl)pyrazolo[1,5-a]pyrimidine], 104%; in that of `Oc1cc(CCl)nc2cc(-c3ccccc3)nn12` [(4), 7-Hydroxy-5-chloromethyl-2-phenylpyrazolo[1,5-a]pyrimidine], 103%.
Still for that read-out and setting: the value for `Oc1ccnc2c(-c3cccc(C(F)(F)F)c3)cnn12` [(5), 7-Hydroxy-3-(3-trifluoromethylphenyl)pyrazolo [1,5-a]pyrimidine] was 90.4%.
Still for that read-out and setting: the value for `COc1cc(-c2c(-c3ccccn3)nn3c(O)cc(C)nc23)ccc1Sc1ccccc1` [(6), 7-Hydroxy-5-methyl-3-(3-methoxy-4-phenylthiophenyl)-2-(2-pyridyl)pyrazolo[1,5-a]pyrimidine] was 94.7%.
In the case of `Oc1cc(CCl)nc2cc(-c3ccc(Sc4ccccc4)cc3)nn12` [(7), 7-Hydroxy-5-chloromethyl-2-(4-phenylthiophenyl)pyrazolo[1,5-a]pyrimidine], in the series on contact hypersensitivity, the response vs control in vivo at 20 mg/kg amounted to 113%.
In the case of `Oc1ccnc2c(-c3ccc(Sc4ccccc4)cc3)cnn12` [(8), 7-Hydroxy-3-(4-phenylthiophenyl)pyrazolo[1,5-a]pyrimidine], the “AUC (4-7 hours) of sGaw reaction” value in the series with late asthmatic response (39 mg/Kg (so in the source) orally 30 minutes before antigen, 3 animals) amounted to 127.9 ± 45.4. Moreover, the response vs control in vivo at 20 mg/kg in the series on contact hypersensitivity was 100%.
As for `O=c1cc(COc2ccccc2)[nH]c2c(-c3ccc(Sc4ccccc4)cc3)cnn12` [Example 12, 4,7-dihydro-7-oxo-5-phenoxymethyl-3-(4-phenylthiophenyl)pyrazolo[1,5-a]pyrimidine], in series [1], the viability at 1 µM was 103%. The activity at 1 µM in series [2] is 67%.
The corresponding values for `COCCOCc1cc(=O)n2ncc(-c3ccc(Sc4ccccc4)cc3)c2[nH]1` [Example 14, 4,7-dihydro-5-(2-methoxyethoxymethyl)-7-oxo-3-(4-phenylthiophenyl)pyrazolo[1,5-a]pyrimidine] are 94.2% and 64.4%.
Regarding `CC(C)(C)OCCOCc1cc(=O)n2ncc(-c3ccc(Sc4ccccc4)cc3)c2[nH]1` [Example 15, 5-(2-t-butoxyethoxymethyl)-4,7-dihydro-7-oxo-3-(4-phenylthiophenyl)pyrazolo[1,5-a]pyrimidine], the response vs control in vivo at 3 mg/kg in the series on contact hypersensitivity was determined as 46.3%.
On to `O=c1cc(C2CCCO2)[nH]c2c(-c3ccc(Sc4ccccc4)cc3)cnn12` (stereo not drawn) [Example 19, 4,7-dihydro-7-oxo-3-(4-phenylthiophenyl)-5-(tetrahydrofuran-2-yl)pyrazolo[1,5-a]pyrimidine], for which, in the series on contact hypersensitivity, the response vs control in vivo at 3 mg/kg amounted to 44.7%. Moreover, the activity at 1 µM in series [2] turned out to be 63.1%.
On to `COCCc1cc(=O)n2ncc(-c3ccc(Sc4ccccc4)cc3)c2[nH]1` [Example 22, 4,7-dihydro-5-(2-methoxyethyl)-7-oxo-3-(4-phenylthiophenyl)pyrazolo[1,5-a]pyrimidine], for which the viability at 1 µM in series [1] was found to be 101%. Also, in series [2], the activity at 1 µM is 60.3%.
`COC(OC)c1cc(=O)n2ncc(-c3ccc(Sc4ccccc4)cc3)c2[nH]1` [Example 24, 4,7-dihydro-5-dimethoxymethyl-7-oxo-3-(4-phenylthiophenyl)pyrazolo[1,5-a]pyrimidine]: the viability at 1 µM in series [1] stood at 108%. Further, the activity at 1 µM in series [2] turned out to be 67.3%.
The corresponding values for `CSCc1cc(=O)n2ncc(-c3ccc(Sc4ccccc4)cc3)c2[nH]1` [Example 29, 4,7-dihydro-5-methylthiomethyl-7-oxo-3-(4-phenylthiophenyl)pyrazolo[1,5-a]pyrimidine] are 89.7% and 52.2%.
Consider `COCc1cc(=O)n2nc(COC)c(-c3ccc(Sc4ccccc4)cc3)c2[nH]1` [Example 42, 2,5-bis(methoxymethyl)-4,7-dihydro-7-oxo-3-(4-phenylthiophenyl)pyrazolo[1,5-a]-pyrimidine], for which the activity at 1 µM in series [2] was determined as 55.4%.
Turning to `C[C@]12C=CC(=O)C=C1CC[C@@H]1[C@@H]2[C@@H](O)C[C@@]2(C)[C@H]1CC[C@]2(O)C(=O)CO` [Prednizolone], the “AUC (4-7 hours) of sGaw reaction” value in the series on late asthmatic response (30 mg/Kg orally 30 minutes before antigen, 8 animals) was found to be 15.6 ± 3.5.

Values taken from US6197774A, “Pyrimidine derivative” (Otsuka Pharmaceutical Co., Ltd., priority 1997, dated 2001).
